≈ marks a conversion by molar mass, not a printed value. Like-named read-outs stand apart in the source and are kept apart here.
Experiments:
[1] = system: Candida krusei CCM 8271, ATCC 6258; assay: Antifungal microdilution broth MIC, CK; conditions: Pichia kudriavzevii
[2] = system: Trichophyton interdigitale CCM 8377, ATCC 9533; assay: Antifungal microdilution broth MIC, TI; conditions: Trichophyton interdigitale
[3] = system: Acinetobacter baumannii DSM 30007, ATCC 19606; assay: Antibacterial microdilution broth MIC, ACI; assay type: cell-based
[4] = system: M. avium ssp. avium CNCTC My 80/72; assay: Microplate Alamar Blue Assay MIC, M. avium; assay type: cell-based; conditions: for MIC: Mycobacterium avium
[5] = system: Staphylococcus aureus CCM 4223, ATCC 29213; assay: Antibacterial microdilution broth MIC, SA; assay type: cell-based; conditions: Staphylococcus aureus
[6] = system: HepG2 cell line; assay: Cytotoxicity CellTiter 96, HepG2; assay type: cell-based, human; conditions: Homo sapiens, HepG2, 24 h, 24 h incubation; ^c compound precipitated in the testing medium; ^d over the limit of tested concentrations
[7] = system: Enterococcus faecalis CCM 4224, ATCC 29212; assay: Antibacterial microdilution broth MIC, EF; assay type: cell-based
[8] = system: Candida tropicalis CCM 8264, ATCC 750; assay: Antifungal microdilution broth MIC, CT
[9] = system: Mycolicibacterium aurum DSM 43999; assay: Antimycobacterial microdilution broth MIC (resazurin), M. aurum; assay type: cell-based; conditions: DSM43999, read-out: MIC M. aurum
[10] = system: Mycobacterium tuberculosis H37Rv; assay: Microplate Alamar Blue Assay MIC, Mtb H37Rv; assay type: cell-based; conditions: Mycobacterium tuberculosis, H37RV
[11] = system: Aspergillus flavus CCM 8363; assay: Antifungal microdilution broth MIC, AFla
[12] = system: Candida parapsilosis CCM 8260, ATCC 22019; assay: Antifungal microdilution broth MIC, CP; conditions: Lodderomyces parapsilosis
[13] = system: Candida albicans CCM 8320, ATCC 24433; assay: Antifungal microdilution broth MIC, CA
[14] = system: Staphylococcus epidermidis CCM 4418, ATCC 12228; assay: Antibacterial microdilution broth MIC, SE; assay type: cell-based
[15] = system: Pseudomonas aeruginosa CCM 3955, ATCC 27853; assay: Antibacterial microdilution broth MIC, PA; assay type: cell-based
[16] = system: Lichtheimia corymbifera CCM 8077; assay: Antifungal microdilution broth MIC, LC
[17] = system: Klebsiella pneumoniae CCM 4415, ATCC 10031; assay: Antibacterial microdilution broth MIC, KP
[18] = system: Staphylococcus aureus subsp. aureus CCM 4750, ATCC 43300 (MRSA); assay: Antibacterial microdilution broth MIC, MRSA; assay type: cell-based; conditions: Staphylococcus aureus
[19] = system: Escherichia coli CCM 3954, ATCC 25922; assay: Antibacterial microdilution broth MIC, EC; assay type: cell-based
[20] = system: M. kansasii CNCTC My 235/80; assay: Microplate Alamar Blue Assay MIC, M. kansasii; assay type: cell-based; conditions: Mycobacterium kansasii
[21] = system: panel of bacteria; assay: Antibacterial screening, whole panel; assay type: cell-based; conditions: whole bacterial panel
[22] = system: Mycolicibacterium smegmatis DSM 43465; assay: Antimycobacterial microdilution broth MIC (resazurin), M. smegmatis; assay type: cell-based; conditions: DSM43465, read-out: MIC M. smegmatis
[23] = system: Aspergillus fumigatus ATCC 204305; assay: Antifungal microdilution broth MIC, AF
[24] = system: panel of fungi; assay: Antifungal screening, whole panel; assay type: cell-based; conditions: whole fungal panel
Procedure: The antifungal activity was evaluated by
spectrophotometric visual detection** spectrophotometric detection**
Candida tropicalis 1 1 2 >16
Aspergillus fumigatus 4 4 0.25 1
Aspergillus flavus CCM 4 4 2 >16
interdigitale CCM 1 1 1 >16
control. […] Measured on a […]

[25] = system: Mycobacterium tuberculosis H37Ra; assay: Antimycobacterial microdilution broth MIC (resazurin), Mtb H37Ra; assay type: cell-based; conditions: for MIC: Mycobacterium tuberculosis, H37RA, read-out: MIC Mtb H37Ra; for SI (selectivity index): SI = HepG2 IC50 (μM)/MIC MtbH37Ra (μM), calculated for compounds with MIC ≤ 31.25 μg/mL
[26] = CCM8363, 24 h, read-out: MIC AFla 24h
[27] = CCM8363, 48 h, read-out: MIC AFla 48h
[28] = CCM8077, 24 h, read-out: MIC LC 24h
[29] = CCM8077, 48 h, read-out: MIC LC 48h
[30] = ATCC204305, 24 h, read-out: MIC AF 24h
[31] = ATCC204305, 48 h, read-out: MIC AF 48h

O=C(Cc1ccc(C(F)(F)F)cc1)Nc1cccc(Cl)n1 [Compound 30]
MIC ([1]; 24 h, read-out: MIC CK 24h): > 500 µM | MIC ([1]; 48 h, read-out: MIC CK 48h): > 500 µM | MIC ([2]; 72 h, read-out: MIC TI 72h): 500 µM (≈ 157 µg/mL) | MIC ([2]; 120 h, read-out: MIC TI 120h): 500 µM (≈ 157 µg/mL) | MIC ([3]; 24 h, read-out: MIC ACI 24h): > 500 µM | MIC ([3]; 48 h, read-out: MIC ACI 48h): > 500 µM | MIC M. avium [4]: active | MIC [4]: 6.25 µg/mL (≈ 19.9 µM) | MIC ([5]; 24 h, read-out: MIC SA 24h): > 500 µM | MIC ([5]; 48 h, read-out: MIC SA 48h): > 500 µM | IC50 [6]: 92.6 µM | MIC ([7]; 24 h, read-out: MIC EF 24h): > 500 µM | MIC ([7]; 48 h, read-out: MIC EF 48h): > 500 µM | MIC ([8]; 24 h, read-out: MIC CT 24h): > 500 µM | MIC ([8]; 48 h, read-out: MIC CT 48h): > 500 µM | MIC [9]: > 500 µg/mL | MIC [10]: 6.25 µg/mL (≈ 19.9 µM) | MIC [11, 26]: > 500 µM | MIC [11, 27]: > 500 µM | MIC ([12]; 24 h, read-out: MIC CP 24h): > 500 µM | MIC ([12]; 48 h, read-out: MIC CP 48h): > 500 µM | MIC ([13]; 24 h, read-out: MIC CA 24h): > 500 µM | MIC ([13]; 48 h, read-out: MIC CA 48h): > 500 µM | MIC ([14]; 24 h, read-out: MIC SE 24h): > 500 µM | MIC ([14]; 48 h, read-out: MIC SE 48h): > 500 µM | MIC ([15]; 24 h, read-out: MIC PA 24h): > 500 µM | MIC ([15]; 48 h, read-out: MIC PA 48h): > 500 µM | MIC [16, 28]: > 500 µM | MIC [16, 29]: > 500 µM | MIC KP 24h [17]: > 500 µM | MIC KP 48h [17]: > 500 µM | MIC ([18]; 24 h, read-out: MIC MRSA 24h): > 500 µM | MIC ([18]; 48 h, read-out: MIC MRSA 48h): > 500 µM | MIC ([19]; 24 h, read-out: MIC EC 24h): > 500 µM | MIC ([19]; 48 h, read-out: MIC EC 48h): > 500 µM | MIC [20]: > 100 µg/mL | Antibacterial activity [21]: None | MIC [22]: > 500 µg/mL | MIC [23, 30]: > 500 µM | MIC [23, 31]: > 500 µM | Antifungal activity [24]: None | MIC ([25]; Calculated from MIC (μg/mL)): 24.8 µM | MIC [25]: 7.81 µg/mL | SI (selectivity index) [25]: 3.7

O=C(Cc1ccc(Cl)cc1)Nc1ccc(Cl)cn1 [Compound 20]
MIC ([1]; 24 h, read-out: MIC CK 24h): > 500 µM | MIC ([1]; 48 h, read-out: MIC CK 48h): > 500 µM | MIC ([2]; 72 h, read-out: MIC TI 72h): > 500 µM | MIC ([2]; 120 h, read-out: MIC TI 120h): > 500 µM | MIC ([3]; 24 h, read-out: MIC ACI 24h): > 500 µM | MIC ([3]; 48 h, read-out: MIC ACI 48h): > 500 µM | MIC [4]: > 100 µg/mL | MIC ([5]; 24 h, read-out: MIC SA 24h): > 500 µM | MIC ([5]; 48 h, read-out: MIC SA 48h): > 500 µM | IC50 [6]: 48.5 µM | MIC ([7]; 24 h, read-out: MIC EF 24h): > 500 µM | MIC ([7]; 48 h, read-out: MIC EF 48h): > 500 µM | MIC ([8]; 24 h, read-out: MIC CT 24h): > 500 µM | MIC ([8]; 48 h, read-out: MIC CT 48h): > 500 µM | MIC [9]: 500 µg/mL (≈ 1780 µM) | MIC [10]: 6.25 µg/mL (≈ 22.2 µM) | MIC [11, 26]: > 500 µM | MIC [11, 27]: > 500 µM | MIC ([12]; 24 h, read-out: MIC CP 24h): > 500 µM | MIC ([12]; 48 h, read-out: MIC CP 48h): > 500 µM | MIC ([13]; 24 h, read-out: MIC CA 24h): > 500 µM | MIC ([13]; 48 h, read-out: MIC CA 48h): > 500 µM | MIC ([14]; 24 h, read-out: MIC SE 24h): > 500 µM | MIC ([14]; 48 h, read-out: MIC SE 48h): > 500 µM | MIC ([15]; 24 h, read-out: MIC PA 24h): > 500 µM | MIC ([15]; 48 h, read-out: MIC PA 48h): > 500 µM | MIC [16, 28]: > 500 µM | MIC [16, 29]: > 500 µM | MIC KP 24h [17]: > 500 µM | MIC KP 48h [17]: > 500 µM | MIC ([18]; 24 h, read-out: MIC MRSA 24h): > 500 µM | MIC ([18]; 48 h, read-out: MIC MRSA 48h): > 500 µM | MIC ([19]; 24 h, read-out: MIC EC 24h): > 500 µM | MIC ([19]; 48 h, read-out: MIC EC 48h): > 500 µM | MIC [20]: > 100 µg/mL | Antibacterial activity [21]: None | MIC [22]: 500 µg/mL (≈ 1780 µM) | MIC [23, 30]: > 500 µM | MIC [23, 31]: > 500 µM | Antifungal activity [24]: None | MIC ([25]; Calculated from MIC (μg/mL)): 27.8 µM | MIC [25]: 7.81 µg/mL | SI (selectivity index) [25]: 1.7

From paper PMC11748363, “Antimicrobial and Antiproliferative Properties of 2‐Phenyl‐N‐(Pyridin‐2‐yl)acetamides” (Chemical Biology & Drug Design, 2025)
